Laboratory results published in ChEMBL document CHEMBL1156703, “Antitumor studies -- part 2: structure-activity relationship study for flavin analogs including investigations on their in vitro antitumor assay and docking simulation into protein tyrosine kinase” (Eur J Med Chem, 2008).
Values after ≈ are worked out from the molar mass of the structure shown.

Columns and labels:
Protein kinase C (PKC) = test: Inhibition of rat brain protein kinase C
KB = test: Growth inhibition of human KB cells by MTT assay; format: functional, cell-based

| Structure (SMILES) | IC50 (Protein kinase C (PKC)) | IC50 (KB) |
| --- | --- | --- |
| C[C@H]1CNCCN1S(=O)(=O)c1cccc2cnccc12 | 38.4 µg/mL (≈ 132 µM) |  |
| CCCCCCCCCCCCn1c2nc(=O)[nH]c(=O)c-2cc2ccc(Cl)cc21 | > 100 µg/mL | > 10 µg/mL |
| O=c1nc2n(-c3ccccc3)c3ccccc3cc-2c(=O)n1-c1ccccc1 | > 100 µg/mL | > 10 µg/mL |
| CCn1c2nc(=O)n(C)c(=O)c-2cc2ccccc21 | 46.6 µg/mL (≈ 183 µM) | > 10 µg/mL |
| Cc1ccc2c(c1)cc1c(=O)n(C)c(=O)nc-1n2-c1ccccc1 | 26.4 µg/mL (≈ 83.2 µM) | > 10 µg/mL |
| CCCCn1c2nc(=O)[nH]c(=O)c-2cc2ccccc21 | 89.7 µg/mL (≈ 333 µM) | > 10 µg/mL |
| CCCn1c2nc(=O)n(C)c(=O)c-2cc2ccccc21 | 46 µg/mL (≈ 171 µM) | > 10 µg/mL |
| CCn1c2nc(=O)[nH]c(=O)c-2cc2cc(C)ccc21 | 10 µg/mL (≈ 39.2 µM) | > 10 µg/mL |
| CCCCn1c2nc(=O)n(C)c(=O)c-2cc2ccccc21 | 23.9 µg/mL (≈ 84.4 µM) | > 10 µg/mL |
| Nc1ccn([C@@H]2O[C@H](CO)[C@@H](O)[C@@H]2O)c(=O)n1 [CYTARABINE] |  | 0.14 µg/mL (≈ 0.576 µM) |

Other lines, results leading:

| IC50 (Protein kinase C (PKC)) | IC50 (KB) | Structure (SMILES) |
| --- | --- | --- |
| 12.9 µg/mL (≈ 42.8 µM) |  | CCn1c2nc(-c3ccccc3)nc(=O)c-2cc2ccccc21 |
| 4.55 µg/mL (≈ 15.1 µM) | 1.17 µg/mL (≈ 3.88 µM) | Cc1ccc2c(c1)cc1c(=O)nc(-c3ccccc3)nc-1n2C |
| 14.8 µg/mL (≈ 65.4 µM) |  | Cn1c2nc(N)nc(=O)c-2cc2ccccc21 |
| 3.54 µg/mL (≈ 12.3 µM) |  | Cn1c2nc(-c3ccccc3)nc(=O)c-2cc2ccccc21 |
| > 100 µg/mL | > 10 µg/mL | O=c1nc2n(-c3ccccc3)c3ccccc3cc-2c(=O)[nH]1 |
| > 100 µg/mL | > 10 µg/mL | Cn1c(=O)nc2n(-c3ccccc3)c3ccccc3cc-2c1=O |
| 60.1 µg/mL (≈ 198 µM) | > 10 µg/mL | Cn1c2nc(=O)n(-c3ccccc3)c(=O)c-2cc2ccccc21 |
|  | 2.53 µg/mL (≈ 7.68 µM) | CCCCn1c2nc(-c3ccccc3)nc(=O)c-2cc2ccccc21 |
| 53.3 µg/mL (≈ 168 µM) | > 10 µg/mL | CCn1c2nc(=O)n(-c3ccccc3)c(=O)c-2cc2ccccc21 |
